Measurements published in US4457917A, “Peptide, process for its preparation and pharmaceutical composition containing same” (Max-Planck-Gesellschaft zur Foerderung der Wissenschaften …, priority 1981, dated 1984).
Non-standard residues stand in square brackets, D forms with d. No end group written: not given here. pGlu = O=C1CC[C@@H](C(=O)O)N1

Tests used:
[1] = Blood pressure effect upon intraventricular administration; format: in vivo; details: mammals
Hydra [2] = assay: Mitogen action on cell division in Hydra; format: in vivo
embryonal brain cells = assay: Growth-stimulating action on embryonal brain cells; format: cell-based; details: mammals
Hydra [3] = assay: Head-specific determination in Hydra (interstitial parent cell determined to the nerve cell); format: in vivo

## [pGlu]PPGGSKVILF [peptide of the invention]
[1]
  effect on blood pressure: hypertensive (pressor) effect
Hydra [2]
  mitogen action, cell division of all types of cells: acts as a mitogen
Hydra [2]; order of magnitude
  concentration at which the effect occurs (mitogen): ~10^-10 M
Embryonal brain cells
  action on growth of embryonal brain cells: growth-stimulating action
Hydra [3]
  head-specific determination: responsible for head-specific determination
Hydra [3]; order of magnitude
  concentration at which the effect occurs (head-specific determination): ~10^-10 M
